{"source": "patent US7829528B2", "about": "“Compositions and methods for treating STAT-6 associated diseases or conditions” (The Rockefeller University, priority 2004, dated 2010)", "test_system": "IFN-gamma mRNA", "assay": "Semiquantitative RT-PCR of IFN-gamma mRNA in splenocytes", "format": "cell-based, BALB/c mice", "conditions": "splenocytes cultured with ovalbumin plus peptide", "procedure": "The levels of mRNA encoding IL-4, IL-13 and IFN-gamma were also evaluated by semiquantitative RT-PCR analysis. Ovalbumin-induced expression of both IL-4 and IL-13 mRNA was inhibited in splenocytes cultured with the STAT-6-IP and not the STAT-6-CP. […] The number of CD4+ T cells producing IL-4 was also quantified by intracellular cytokine staining. When splenocytes from ovalbumin-sensitized mice were cultured with ovalbumin, there was a significant increase in the number of CD4+ lymphocytes expressing IL-4 (Table 4). The increase in IL-4 expression was abrogated in splenocytes cultured with ovalbumin in the presence of the STAT-6-IP, while the STAT-6-CP had no effect.\nReverse transcriptase (RT)-PCR was used to monitor expression of mRNAs encoding IL-4, IL-13 and IFN-gamma. Materials for RNA extraction and RT-PCR were purchased from INVITROGEN™ Canada (Burlington, Ontario). Total RNA was extracted from splenocytes, treated with DNAse, and 1 μg of RNA was reverse transcribed into cDNA using SUPERSCRIPT™ II reverse transcriptase. […] PCR products were resolved by gel electrophoresis and visualized and quantified on a FLUORCHEM™ 8000 Imaging System (Alpha Innotech, San Leandro, Calif.) using ALPHAEASE™ software (Alpha Innotech). […]", "note": "Where no end group is shown, it is not given here.", "data": [{"sequence": "YARAAARQARAGRGFVSTT [STAT-6-CP, STAT-6 Tyr-641 mutant, control peptide]", "values": [{"measurement": "Expression of IFN-gamma mRNA", "result": "did not change"}]}]}
